The text below walks through data of patent publication US6911194B2, “Skin preparation” (PhotoCure ASA, priority 2000, dated 2005).

The structures appear in SMILES notation.

For one data set, the system named is forearm skin of a person. Nature of the data set: Erythema and PpIX fluorescence on forearm skin after topical cream and UVA light (Example 7). It is filed as in vivo, human. The note with it: for content of PpIX produced in the skin areas (fluorescence emission spectra): 20% cream on forearm; for erythema: 20% cream, UVA black light 5 min two hours after application, observed 24 hours later. The procedure: A cream (Unguentum, Merck) containing 20% ALA, ALA butyl ester and ALA hexyl ester respectively, was applied on three separate areas on the skin of the forearm of a person. Two hours later the skin areas were exposed to UVA light from a black light lamp for 5 min.
The content of PpIX produced in the skin areas was assessed by measuring the fluorescence emission spectra.

Data set [1] relates to human skin. Nature of the data set: Erythema and pigmentation on human forearm after topical cream and black light (Example 4, Experiment B). It is filed as in vivo. The note with it: for erythema: high doses: drug 20%, light 3 min, cream applied 4 hours. The procedure: ALA and ALA derivatives in cream was applied to different areas on the forearm of a person. Four hours afterwards the cream was removed and the arm was exposed to black light, 380 nm, for 1-5 min. The skin of the arm was examined for two weeks.

Data set [2] deals with skin of C3H/Tif hairless mice. Nature of the data set: Pigmentation of hairless mouse skin after topical drug and red laser light (Example 4, Experiment A). In kind it is in vivo. Here is the method: One hour after the application, the mice were exposed to light for 1 min (red laser light, 100 m/Wcm^2, 633 nm). […] The treatment was repeated 10 times within 2 weeks.
Another data set relates to SKH1 hairless mouse. Briefly: Prevention of UV-induced skin cancer by multiple topical ALA-Me PDT sessions (Example 8). In kind it is in vivo. The procedure: The ability of multiple photodynamic therapy (PDT) sessions with topical ALA methylester (ALA-Me) to prevent skin cancer induced by ultraviolet radiation (UV) was studied in the SKH1 hairless mouse. Groups of 20 mice were exposed 5 days per week to UV from FS20 tubes. One group was treated weekly with 8% topical ALA-Me followed 2 hours later by 1.2 J/cm^2 of light from a slide projector, The number, location, and size of skin tumors were registered weekly. Other study groups included: mice treated with 8% ALA-Me and not exposed to light, mice exposed to UV and vehicle, mice exposed to topical ALA-Me and light but not UV, as well as mice exposed to UV with half of their bodies treated with 8% ALA-Me and half of their bodies treated with the vehicle. […] After 26 weeks of UV exposure large tumors (≧4 mm) were present in 14 mice of the UV group as compared to only one mouse in the UV-ALA-Me group.

Data set [3] relates to human skin. Briefly: Erythema on human hands after topical cream and blacklight exposure (Example 2). In kind it is in vivo. The note with it: 20% in Unguentum Merck cream, 5 hours on hands, blacklight 350-400 nm for 5 min or 1 min. Here is the method:
A high concentration of ALA and ALA-methyl ester (20%, Sigma) in a cream (Unguentum Merck) was applied to a circular area of 1 cm diameter for 5 hours on both hands of a person, FIGS. 1(A, B). A means ALA, M means ALA-methyl ester. The areas of application are shown by the dotted circles on the figure. The cream with the drugs were carefully washed away and the areas were exposed to ordinary blacklight from a fluorescence tube. The wavelengths of the light fall within the region 350-400 nm, FIG. 2. An exposure of 5 minutes was given to the left hand and an exposure of 1 minute was given to the right hand.

In a further data set the test system is naked mice. The note with it: topical ALA, simulated solar UV radiation; cited from earlier work.
Data set [4] can be described thus: PpIX concentration in plasma after topical application in mice (Example 5). The following applies: 20 hr after topical application of 20% cream. In kind it is in vivo, mouse.
Procedure: A cream was prepared using 20% (wt/wt) ALA, ALA-Me or ALA-Hex in an ointment (Unguentum, Merck, Darmstadt, Germany). Approximately 0.2 mg of the freshly prepared cream was applied on a single spot of 1 cm diameter on normal skin of each mouse. An adhesive dressing (OpSite Flexigrid, Smith and Nephew Medical, LTD, Hull, England) with a punched hole of 1 cm in diameter was first put on the skin. Then the cream was applied on the skin in the punched hole and covered with another similar dressing. 20 hours application time was used.
Female Balb/c athymic nude mice were obtained from Bomholt Gaard (Ry, Denmark). At the start of each experiment, they were 7-8 weeks old and weighed 18-25 g. Three mice were housed per cage with autoclaved filter covers in a room with subdued light at constant temperature (24-26° C.) and humidity (30-50%). Food and bedding were sterilized and the mice were given tap water ad libitum in sterilized bottles. For proper application of the cream, anaesthesia, hypnorm dormicum (approximately 4 ml/kg body weight), was i.p. injected into the mice.
Immediately after mice were killed, whole blood was drawn directly from the right atrium of the heart. The total volume of blood obtained from each mouse was approximately 0.2 ml and was selected in EDTA-treated micro-tubes. The red blood cells were fluorimetrically determined as described above.
Another data set relates to skin of nude BALB/c mice. Nature of the data set: Localization of PpIX fluorescence on skin of nude mice under UV lamp (Example 6).
A further data set has as its system Balb/c athymic nude mice. Nature of the data set: Tissue distribution of PpIX fluorescence after topical application in mice (Example 5). It is filed as in vivo, mouse. The following applies: 20% cream topical, compared to ALA methyl ester. The procedure:
ALA, ALA methyl ester and ALA hexyl ester containing cream was applied locally on the skin surface of hairless mice. Fluorescence intensities were used as indications of the concentration of PpIX on the application site (skin), in remote skin spots, in liver, intestine, lungs, muscle and brain and plasma.
A cream was prepared using 20% (wt/wt) ALA, ALA-Me or ALA-Hex in an ointment (Unguentum, Merck, Darmstadt, Germany). Approximately 0.2 mg of the freshly prepared cream was applied on a single spot of 1 cm diameter on normal skin of each mouse. An adhesive dressing (OpSite Flexigrid, Smith and Nephew Medical, LTD, Hull, England) with a punched hole of 1 cm in diameter was first put on the skin. Then the cream was applied on the skin in the punched hole and covered with another similar dressing. […]
Female Balb/c athymic nude mice were obtained from Bomholt Gaard (Ry, Denmark). At the start of each experiment, they were 7-8 weeks old and weighed 18-25 g. Three mice were housed per cage with autoclaved filter covers in a room with subdued light at constant temperature (24-26° C.) and humidity (30-50%). […]
The method for determining the amounts of PpIX in tissues was described previously (Ma et al., 1998). […] Levels of PpIX in the supernatants were quantitatively determined by recording fluorescence emission spectra of the samples using a Perkin-Elmer (Norwalk, Conn.) LS 50B spectrofluorimeter. […]

For the molecule `CCCCOC(=O)CCC(=O)CN` [ALA butyl ester], in the data set with forearm skin of a person, the “content of PpIX produced in the skin areas (fluorescence emission spectra)” value (shortened to “content of PpIX produced”) is reported as “smaller” and the erythema entry is reported as “significant but weaker erythema”.

As to `CCCCCCOC(=O)CCC(=O)CN` [ALA hexyl ester, 5-aminolevulinic acid hexyl ester], in the data set on forearm skin of a person, the “content of PpIX produced” value was “smallest” and the erythema result is given as “significant but weaker erythema”.

`COC(=O)CCC(=O)CN` [ALA methyl ester, 5-aminolevulinic acid methyl ester]: the erythema result is “led to erythema” with human skin [1] and “No erythema was observed” in [2] (1% in Unguentum Merck cream, light 1 min (633 nm) one hour after application). The skin pigmentation entry in data set [2] (1% cream, 1 min red laser light, repeated 10 times within 2 weeks) is given as “gradually pigmented”. Also, the “delay in tumor appearance, half body ALA-Me and half body vehicle” value in the data set on SKH1 hairless mouse (UV-exposed mice treated on one side with 8% ALA-Me, other side vehicle) is recorded as “observed only on the side treated with ALA-Me”. Moreover, the “number of mice with large tumors (≧4 mm)” value in the data set on SKH1 hairless mouse (after 26 weeks of UV exposure, groups of 20 mice) was “one”. For the same molecule, the “protoporphyrin IX accumulation in tumors versus adjacent UV exposed skin and normal skin” value in the data set on SKH1 hairless mouse (in vivo fluorescence spectroscopy and fluorescence microscopy at the time of light exposure) was “preferential accumulation of protoporhyrin IX in tumors”. Moreover, in the data set with SKH1 hairless mouse (topical ALA-Me-PDT), the mortality or morbidity entry was “without increasing mortality or morbidity”. Besides, the “time when the first tumor appeared” value in the data set on SKH1 hairless mouse (weekly 8% topical ALA-Me plus 1.2 J/cm^2 light, compared to mice only exposed to UV) is “significant delay”. For the same molecule, in the data set on human skin [3], the “erythema spreading out from the area of application” value was “only in a half-circle in the upper part of the hand”.

`NCC(=O)CCC(=O)O` [ALA, 5-aminolevulinic acid]: in the data set with naked mice, the “UV induction of skin cancer” value is “photo-induced carcinogenesis was delayed” and the “skin reaction of exposed areas” value is “erythematous”. Besides, in the data set with forearm skin of a person, the “content of PpIX produced” value is “highest concentration of PpIX” and the erythema entry is “significant pronounced erythema”. In the data set on human skin [1] (20% ALA, 1 min light (slightly erythemogenic), 2 weeks after light exposure), the pigmentation result was “led to later pigmentation”. For the same molecule, in the data set with human skin [1], the erythema result was “led to erythema”. The “pigmentation (melanogenesis)” value in the data set with human skin [1] (one week after a low dose single nonerythemogenic treatment) is on record as “clearly visible pigmentation (melanogenesis)”. The concentration in plasma result in data set [4] was “higher than both ALA methylester and ALA hexylester”. In addition, in the data set on skin of nude BALB/c mice (20% cream, photos under UV lamp after 8 hours), the “localization of protoporphyrin IX (PpIX) fluorescence” value is recorded as “localized all over the skin”. Further, the “site of PpIX production after application on the skin of mice (summary statement)” value in the data set with skin of nude BALB/c mice (applied on the skin of mice) was “induces PpIX in the whole mouse”. For the same molecule, the “PpIX outside the application site” value in the data set on Balb/c athymic nude mice (5 hrs application time) was “significally more PpIX outside the application site”. The “PpIX outside the application site” value in the data set on Balb/c athymic nude mice (20 hrs application time) is given as “significally more PpIX outside the application site”. Besides, in the data set with human skin [3], the “erythema spreading out from the area of application” value is “circular, covering both the upper and the lower part of the hand”.
